Eleven compounds from ChEMBL document CHEMBL1201862, “PubChem BioAssay data set” (2004) can be followed below.

Each structure is given as a SMILES string.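 Compound exposure: 48 hours, 5 concentrations, 96-well plates. Here, GI50 denotes the concentration required for 50% inhibition of growth.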 Activity calls are given as the source filed them. Rule as the data show it: active = GI50 up to about 1.1 µM and inactive = higher.

Test systems include HCC 2998; UO-31; LOX IMVI; SW-620; TK-10; MOLT-4; NCI-H460; U-251; SNB-19; SK-MEL-28; RPMI-8226; HOP-62; NCI-H23; HOP-92; SK-MEL-2; CAKI-1; IGROV-1; K562; SNB-75; ACHN.
Holding throughout (test): NCI anticancer screen, dose series, 48 h

Consider `Cc1ccc(C2(O)c3ccccc3C(=O)N(C)C2(O)c2ccc(C)cc2)cc1` (centres undefined), for which the GI50 is 79.3 µM (inactive) in the assay on HCC 2998; 57.8 µM (inactive) with UO-31; 25.5 µM (inactive) in the assay on LOX IMVI; 34.5 µM (inactive) in the assay with SW-620; > 100 µM (inactive) with TK-10; 12.8 µM (inactive) in the assay on MOLT-4. Further, the GI50 with NCI-H460 is 22.6 µM (inactive); in the assay on U-251, 17.4 µM (inactive); in the assay on SNB-19, 21.5 µM (inactive); in the assay with SK-MEL-28 it was > 100 µM (inactive); with RPMI-8226, > 100 µM (inactive); in the assay with HOP-62 it was 22 µM (inactive). Besides, the GI50 with NCI-H23 is > 100 µM (inactive); with HOP-92, 18.6 µM (inactive); with SK-MEL-2, > 100 µM (inactive); in the assay with CAKI-1 it was 68.1 µM (inactive); in the assay on IGROV-1, > 100 µM (inactive); in the assay on K562 it was 28.4 µM (inactive).
`Clc1ccc(CCn2ccc3ccccc32)c(Cl)c1`: the GI50 in the assay with HCC 2998, with UO-31, with SNB-75, in the assay on SW-620, in the assay with TK-10 and in the assay on MOLT-4 was > 100 µM (inactive) each time. Besides, the GI50 in the assay on NCI-H460, in the assay with U-251, in the assay on SNB-19, in the assay with RPMI-8226, with HOP-62 and with NCI-H23 was > 100 µM (inactive) throughout. Further, the GI50 in the assay on HOP-92, in the assay on SK-MEL-2, in the assay on ACHN, with CAKI-1, with IGROV-1 and in the assay with K562 was > 100 µM (inactive) each time.
Consider `CC(C)CNc1nc2ncnc(N)c2[nH]1`, for which the GI50 in the assay with HCC 2998, with UO-31, with LOX IMVI, in the assay on SW-620, in the assay with TK-10 and in the assay on MOLT-4 was > 100 µM (inactive) each time. Moreover, the GI50 in the assay with NCI-H460, in the assay with U-251, with SNB-19, in the assay on SK-MEL-28, in the assay with RPMI-8226 and in the assay on HOP-62 was > 100 µM (inactive) throughout. Further, the GI50 in the assay with NCI-H23 was > 100 µM (inactive); in the assay with HOP-92 it was 56.8 µM (inactive); in the assay with SK-MEL-2, > 100 µM (inactive); in the assay on ACHN it was > 100 µM (inactive); in the assay on CAKI-1, > 100 µM (inactive); in the assay on IGROV-1, > 100 µM (inactive). Further, the GI50 with K562 was > 100 µM (inactive).
As for `Clc1ccc(OC2CCO2)cc1Cl` (centres undefined), the GI50 in the assay with HCC 2998 is > 100 µM (inactive); with UO-31 it was 62.4 µM (inactive); in the assay on SNB-75 it was > 100 µM (inactive); with SW-620, 17.9 µM (inactive); with TK-10, 87.7 µM (inactive); in the assay on MOLT-4, 35.3 µM (inactive). Further, the GI50 in the assay on NCI-H460 is 47.2 µM (inactive); in the assay with U-251, 88.3 µM (inactive); with SNB-19, > 100 µM (inactive); with SK-MEL-28, > 100 µM (inactive); in the assay with RPMI-8226, 43.5 µM (inactive); with HOP-62, 78.9 µM (inactive). Further, the GI50 was 83.8 µM (inactive) in the assay on NCI-H23; 46.3 µM (inactive) in the assay on HOP-92; 49.7 µM (inactive) in the assay on ACHN; 53.1 µM (inactive) in the assay with CAKI-1; > 100 µM (inactive) in the assay with IGROV-1; 40.6 µM (inactive) in the assay on K562.
`N[C@]1(C(=O)O)C[C@@H]2C(Br)=NO[C@@H]2C1`: the GI50 in the assay with HCC 2998, in the assay with UO-31, with SNB-75, with SW-620, with TK-10 and in the assay on MOLT-4 was > 100 µM (inactive) in each case. Besides, the GI50 with NCI-H460 was 55.7 µM (inactive); in the assay with U-251, > 100 µM (inactive); with SNB-19, > 100 µM (inactive); in the assay with RPMI-8226, > 100 µM (inactive); with HOP-62 it was > 100 µM (inactive); in the assay with NCI-H23 it was > 100 µM (inactive). Moreover, the GI50 with HOP-92, in the assay on SK-MEL-2, in the assay with ACHN and with CAKI-1 was > 100 µM (inactive) in each case.
In the case of `Clc1cc(Cl)cc(C2SCc3nc4ccccc4n32)c1` (centres undefined), the GI50 was > 10 µM (inactive) with HCC 2998; 19.3 µM (inactive) with UO-31; 43.4 µM (inactive) in the assay on SNB-75; 11 µM (inactive) with SW-620; 27.7 µM (inactive) with TK-10; 11.7 µM (inactive) in the assay on MOLT-4. In addition, the GI50 was 14.3 µM (inactive) in the assay with NCI-H460; 14 µM (inactive) in the assay with U-251; 20.7 µM (inactive) in the assay with SNB-19; 13.8 µM (inactive) in the assay with SK-MEL-28; 11.5 µM (inactive) with RPMI-8226; 17 µM (inactive) in the assay on NCI-H23. For the same compound, the GI50 with HOP-92 is 14.4 µM (inactive); in the assay on SK-MEL-2 it was 17.6 µM (inactive); with ACHN it was 22.9 µM (inactive); in the assay on CAKI-1, 14.9 µM (inactive); with K562, 3.82 µM (inactive).
As to `N#CCCN(CCN(CCC#N)C(=O)Nc1ccccc1)C(=O)Nc1ccccc1`, the GI50 in the assay with HCC 2998 was > 100 µM (inactive); in the assay with UO-31, 85.7 µM (inactive); with SNB-75, 19.5 µM (inactive); in the assay with LOX IMVI, > 100 µM (inactive); with SW-620, > 100 µM (inactive); with TK-10 it was > 100 µM (inactive). Moreover, the GI50 is > 100 µM (inactive) in the assay on MOLT-4; 68.5 µM (inactive) in the assay on NCI-H460; 39.6 µM (inactive) in the assay on U-251; 32.7 µM (inactive) with SNB-19; > 100 µM (inactive) in the assay with SK-MEL-28; > 100 µM (inactive) in the assay on RPMI-8226. Moreover, the GI50 was 20.8 µM (inactive) in the assay with HOP-62; 61.4 µM (inactive) in the assay on NCI-H23; 37.6 µM (inactive) with HOP-92; > 100 µM (inactive) in the assay with SK-MEL-2; > 100 µM (inactive) in the assay with ACHN; 68.9 µM (inactive) in the assay with IGROV-1. The GI50 in the assay with K562 was > 100 µM (inactive).
With `O=C(NC1CCCCC1)NC12CC3CC(CC(F)(C3)C1)C2`, the GI50 was > 100 µM (inactive) with HCC 2998; 55.3 µM (inactive) in the assay on UO-31; 40.4 µM (inactive) in the assay with SNB-75; > 100 µM (inactive) with LOX IMVI; > 100 µM (inactive) with SW-620; 85.3 µM (inactive) in the assay with TK-10. Besides, the GI50 with MOLT-4, in the assay with NCI-H460, in the assay with U-251, in the assay with SNB-19, with SK-MEL-28 and in the assay with RPMI-8226 was > 100 µM (inactive) throughout. In addition, the GI50 is > 100 µM (inactive) in the assay with HOP-62; > 100 µM (inactive) in the assay on NCI-H23; 54.5 µM (inactive) with HOP-92; > 100 µM (inactive) in the assay with SK-MEL-2; > 100 µM (inactive) in the assay on ACHN; > 100 µM (inactive) in the assay on IGROV-1. The GI50 in the assay with K562 was > 100 µM (inactive).
For the compound `Cc1c2c(cc3c1[nH]c1ccccc13)C(c1ccc(Cl)cc1)=NCC2`, the GI50 with HCC 2998 was 0.991 µM (active); with UO-31 it was 0.644 µM (active); with SNB-75, 0.217 µM (active); with LOX IMVI, 0.424 µM (active); in the assay with SW-620 it was 0.356 µM (active); in the assay on MOLT-4, 0.426 µM (active). Moreover, the GI50 is 0.267 µM (active) in the assay with NCI-H460; 0.608 µM (active) with U-251; 0.355 µM (active) in the assay with SNB-19; 1.45 µM (inactive) with SK-MEL-28; 0.497 µM (active) in the assay on RPMI-8226; 0.738 µM (active) in the assay on HOP-62. In addition, the GI50 in the assay with NCI-H23 was 0.368 µM (active); in the assay on HOP-92, 0.716 µM (active); with SK-MEL-2, 0.711 µM (active); in the assay on IGROV-1, 0.944 µM (active); in the assay with K562, 0.328 µM (active).
`COc1ccc2c(c1)[n+]([O-])c(C(C)=O)c(C)[n+]2[O-]`: the GI50 in the assay on HCC 2998, in the assay with UO-31, in the assay on LOX IMVI, in the assay with SW-620, in the assay with TK-10 and with MOLT-4 was > 100 µM (inactive) throughout. Also, the GI50 in the assay with NCI-H460, with U-251, in the assay with SNB-19, in the assay on SK-MEL-28, with RPMI-8226 and in the assay with HOP-62 was > 100 µM (inactive) throughout. Further, the GI50 with NCI-H23, in the assay with HOP-92, in the assay with SK-MEL-2, with ACHN, in the assay on CAKI-1 and in the assay on IGROV-1 was > 100 µM (inactive) throughout. For the same compound, the GI50 with K562 was > 100 µM (inactive).
Consider `FC(F)(F)c1ccc(/N=N/N2CCCC2)cc1`, for which the GI50 was > 100 µM (inactive) in the assay with HCC 2998; 54.7 µM (inactive) with UO-31; > 100 µM (inactive) in the assay on LOX IMVI; > 100 µM (inactive) in the assay on SW-620; > 100 µM (inactive) in the assay with TK-10; > 100 µM (inactive) in the assay with MOLT-4. Further, the GI50 is 63 µM (inactive) in the assay on NCI-H460; > 100 µM (inactive) in the assay on U-251; > 100 µM (inactive) with SNB-19; > 100 µM (inactive) with SK-MEL-28; > 100 µM (inactive) in the assay on RPMI-8226; > 100 µM (inactive) in the assay with HOP-62. Moreover, the GI50 in the assay on NCI-H23 was 65.8 µM (inactive); in the assay with HOP-92 it was 80 µM (inactive); with SK-MEL-2, > 100 µM (inactive); in the assay with ACHN it was > 100 µM (inactive); with CAKI-1, > 100 µM (inactive); in the assay on IGROV-1, > 100 µM (inactive). The GI50 in the assay on K562 is > 100 µM (inactive).
